Series [1] concerns thermal nociception in rodents. As to the kind of experiment: Hot plate test, noxious thermal stimulus of 50 degrees Celsius (pilot studies). The note with it: for block of the antinociceptive effects of (2R,6R)-HNK by antagonist pretreatment: hot plate, given with (2R,6R)-HNK; for antinociceptive effects on thermal nociception (latency to lick a hind paw): 10 mg/kg i.p. for three consecutive days, hot plate 50 degrees Celsius, males, 24, 48 and 72 hours post treatment. The format is in vivo. The method, then: In addition, pilot studies were conducted to assess the antinociceptive potential of (2R,6R)-HNK (10 mg/kg intraperitoneal (i.p.) injection administered for three consecutive days) in response to a noxious thermal stimulus of 50 degrees Celsius on the hot plate apparatus. The latency to lick a hind paw was measured in males before and after (2R,6R)-HNK treatment at 24, 48, and 72 hours post treatment.

Series [2] relates to PTSD symptoms in patients. To be noted: cited from earlier work.
Series [3] relates to mice with a spinal nerve injury. The note with it: 24 hours following a single injection; cited from earlier work.
Series [4] has as its system rodent model for CRPS and postoperative pain. To be noted: cited from earlier work.
The test system of series [5] is gait function. In words: Forced swim test, gait function. The format is in vivo. The note with it: compared with ketamine.
Setting [6] is: 6 times over a 2-week period, 0.5 mg/kg 40-min infusions, treatment resistant subjects.

Turning to `O=C1CC[C@@]2(O)[C@H]3Cc4ccc(O)c5c4[C@@]2(CCN3CC2CC2)[C@H]1O5` [naltrexone], the “block of the antinociceptive effects of (2R,6R)-HNK by antagonist pretreatment” value in series [1] is reported as “failed to block”.

Consider `N[C@]1(c2ccccc2Cl)CCC[C@H](O)C1=O` [(2S,6S)-HNK], for which the “antinociceptive effects on thermal nociception (latency to lick a hind paw)” value in series [1] is given as “not extended”.

With `CNC1(c2ccccc2Cl)CCCCC1=O` (racemic) [ketamine], in series [2] (setting [6]), the “median time to relapse after the cessation of treatment” value is given as 41 days and the “start of persistent remission following the first infusion” value is recorded as at least 24 h. Besides, the “persistence of resolution of PTSD symptoms before re-emergence” value in series [2] (single dose, adults and children) is “over one”. Moreover, in series [2] (six 1-hour infusions, mean final dose 163.83 mg, reduced from 18.5), the “patient health questionnaire score after treatment” value is reported as 9.5. Moreover, in series [2] (six 1-hour infusions, mean final dose 163.83 mg, reduced from 56.2), the “PTSD checklist for DSM-5 after treatment” value is listed as 31.3.

Take `N[C@@]1(c2ccccc2Cl)CCC[C@@H](O)C1=O` [(2R,6R)-HNK, 2R,6R-hydroxynorketamine]: in series [3], the “antinociceptive effects after a single injection” value is “Antinociceptive effects”. In addition, the “persistence of analgesic effects following administration” value in series [4] is reported as “up to five”. Moreover, the “antinociceptive effects on thermal nociception (latency to lick a hind paw)” value in series [1] is recorded as “long-lasting antinociceptive effects”. The “impairment of gait function” value in series [5] is given as “does not impair gait function significantly”.

Regarding `NS(=O)(=O)c1cccc2c1c([N+](=O)[O-])cc1nc(O)c(O)nc12` [NBQX], in series [1], the “block of the antinociceptive effects of (2R,6R)-HNK by antagonist pretreatment” value was “effectively block”.
